In patent publication US8258311B2, “Human protein tyrosine phosphatase inhibitors and methods of use” (Aerpio Therapeutics Inc., priority 2006, dated 2012) one finds IC50 data, which are given here for 22 compounds.

The target in one assay is T1, PTP1B (Homo sapiens, UniProt P18031).
T1 sequence (P18031 1-435): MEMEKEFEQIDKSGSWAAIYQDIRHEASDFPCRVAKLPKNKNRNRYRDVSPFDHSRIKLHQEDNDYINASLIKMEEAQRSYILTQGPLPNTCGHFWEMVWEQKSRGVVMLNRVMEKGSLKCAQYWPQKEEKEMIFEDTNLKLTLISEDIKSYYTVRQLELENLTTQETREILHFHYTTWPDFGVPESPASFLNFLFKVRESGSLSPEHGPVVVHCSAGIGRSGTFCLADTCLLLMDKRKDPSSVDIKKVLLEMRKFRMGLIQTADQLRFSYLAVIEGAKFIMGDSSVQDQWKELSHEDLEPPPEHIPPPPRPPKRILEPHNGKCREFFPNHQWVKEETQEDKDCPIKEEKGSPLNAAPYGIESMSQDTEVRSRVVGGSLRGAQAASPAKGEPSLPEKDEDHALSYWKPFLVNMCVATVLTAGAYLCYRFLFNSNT
In words: PTP1B inhibition (IC50). Type of assay: biochemical.

The next assay addresses HPTPβ (Homo sapiens, UniProt P23467). In words: HPTPβ inhibition (IC50). Type of assay: biochemical.

A word on the IC50: it is the concentration that gives 50% inhibition. A high value points to a need for much substance.

Chain of HPTPβ (P23467 23-1997): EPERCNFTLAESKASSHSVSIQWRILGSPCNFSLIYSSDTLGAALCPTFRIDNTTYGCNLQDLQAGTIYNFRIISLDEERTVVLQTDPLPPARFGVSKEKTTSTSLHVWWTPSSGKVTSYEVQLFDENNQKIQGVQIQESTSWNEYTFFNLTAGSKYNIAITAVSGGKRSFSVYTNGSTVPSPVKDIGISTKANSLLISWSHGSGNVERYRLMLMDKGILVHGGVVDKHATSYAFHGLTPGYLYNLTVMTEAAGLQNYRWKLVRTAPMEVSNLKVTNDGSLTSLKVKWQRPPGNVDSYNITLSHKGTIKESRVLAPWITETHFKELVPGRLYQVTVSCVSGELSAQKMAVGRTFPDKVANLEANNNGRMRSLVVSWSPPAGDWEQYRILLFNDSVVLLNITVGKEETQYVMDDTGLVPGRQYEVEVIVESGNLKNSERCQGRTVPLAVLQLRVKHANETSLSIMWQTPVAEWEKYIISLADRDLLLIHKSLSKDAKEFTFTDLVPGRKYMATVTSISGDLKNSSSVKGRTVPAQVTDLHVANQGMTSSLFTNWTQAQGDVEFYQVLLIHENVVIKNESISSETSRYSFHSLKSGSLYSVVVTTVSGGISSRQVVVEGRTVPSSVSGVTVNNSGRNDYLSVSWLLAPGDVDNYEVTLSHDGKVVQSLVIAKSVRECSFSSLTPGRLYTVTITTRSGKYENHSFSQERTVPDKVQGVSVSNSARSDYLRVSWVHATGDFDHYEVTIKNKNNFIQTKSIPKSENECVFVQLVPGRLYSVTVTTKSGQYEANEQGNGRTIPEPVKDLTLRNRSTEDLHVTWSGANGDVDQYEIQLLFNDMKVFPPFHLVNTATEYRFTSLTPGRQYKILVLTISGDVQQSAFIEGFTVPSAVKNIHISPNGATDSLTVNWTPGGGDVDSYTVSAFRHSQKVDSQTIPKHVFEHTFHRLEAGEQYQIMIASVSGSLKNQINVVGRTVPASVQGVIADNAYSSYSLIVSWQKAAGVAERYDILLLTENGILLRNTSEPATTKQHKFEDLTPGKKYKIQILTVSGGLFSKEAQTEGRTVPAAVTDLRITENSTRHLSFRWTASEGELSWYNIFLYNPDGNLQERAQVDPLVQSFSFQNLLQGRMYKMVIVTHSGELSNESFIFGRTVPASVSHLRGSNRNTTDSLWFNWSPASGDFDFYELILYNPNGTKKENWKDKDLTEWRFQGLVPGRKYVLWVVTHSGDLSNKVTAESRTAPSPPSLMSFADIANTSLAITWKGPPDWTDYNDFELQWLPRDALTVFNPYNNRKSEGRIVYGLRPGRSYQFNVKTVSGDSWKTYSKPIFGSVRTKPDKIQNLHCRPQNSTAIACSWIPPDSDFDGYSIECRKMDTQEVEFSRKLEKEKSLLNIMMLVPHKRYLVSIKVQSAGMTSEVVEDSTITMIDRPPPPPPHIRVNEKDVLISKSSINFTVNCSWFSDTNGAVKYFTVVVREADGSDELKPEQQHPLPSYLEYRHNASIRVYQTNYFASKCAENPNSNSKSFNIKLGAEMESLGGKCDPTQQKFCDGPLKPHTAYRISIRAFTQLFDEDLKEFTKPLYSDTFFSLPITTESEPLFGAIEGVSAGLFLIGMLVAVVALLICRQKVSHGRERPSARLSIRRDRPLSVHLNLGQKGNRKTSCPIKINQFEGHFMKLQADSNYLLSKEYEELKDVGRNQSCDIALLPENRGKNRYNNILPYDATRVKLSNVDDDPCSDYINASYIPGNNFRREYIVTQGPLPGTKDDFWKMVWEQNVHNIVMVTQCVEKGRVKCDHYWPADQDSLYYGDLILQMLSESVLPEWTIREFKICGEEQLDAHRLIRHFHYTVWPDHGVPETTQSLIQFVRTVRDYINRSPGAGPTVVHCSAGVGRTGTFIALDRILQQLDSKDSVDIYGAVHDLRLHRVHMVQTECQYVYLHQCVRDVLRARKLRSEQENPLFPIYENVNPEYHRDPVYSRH

Take `CCCc1csc([C@H](Cc2ccc(NS(=O)(=O)O)cc2)NC(=O)[C@H](Cc2ccccc2)NC(=O)OC)n1` [4-{(S)-2-[(S)-2-(Methoxycarbonylamino)-3-phenylpropanamido]-2-(4-propylthiazol-2-yl)ethyl}phenylsulfamic acid]: the values for the IC50 against PTP1B and against HPTPβ were 1030 nM and 0.1 nM, respectively.
Taken in the same sequence, the figures for `COC(=O)N[C@@H](Cc1ccccc1)C(=O)N[C@@H](Cc1ccc(NS(=O)(=O)O)cc1)c1ncc(-c2ccccc2)s1` [4-{(S)-2-[(S)-2-(Methoxycarbonylamino)-3-phenylpropanamido]-2-(5-phenylthiazol-2-yl)ethyl}phenylsulfamic acid] were 810 nM and 0.3 nM.
With `COC(=O)N[C@@H](Cc1ccccc1)C(=O)N[C@@H](Cc1ccc(NS(=O)(=O)O)cc1)c1nccs1` [4-{(S)-2-[(S)-2-(Methoxycarbonylamino)-3-phenylpropanamido]-2-(thiazol-2-yl)ethyl}phenylsulfamic acid], the figures for the IC50 at PTP1B and on HPTPβ were 1020 nM and 6 nM, respectively.
As to `COC(=O)N[C@@H](Cc1ccccc1)C(=O)N[C@@H](Cc1ccc(NS(=O)(=O)O)cc1)c1csc(-c2cnccn2)n1` [4-{(S)-2-[(S)-2-(Methoxycarbonylamino)-3-phenylpropanamido]-2-[2-(pyrazin-2-yl)thiazol-4-yl]ethyl}phenylsulfamic acid], the results for the IC50 on PTP1B and against HPTPβ were 295 nM and 3 nM, respectively.
Consider `COC(=O)N[C@@H](Cc1ccccc1)C(=O)N[C@@H](Cc1ccc(NS(=O)(=O)O)cc1)c1nc(CC(F)(F)F)cs1` [4-{(S)-2-[(S)-2-(Methoxycarbonylamino)-3-phenylpropanamido]-2-[4-(2,2,2-trifluoroethyl)thiazol-2-yl]ethyl}phenylsulfamic acid], for which the IC50 was 1630 nM on PTP1B and 0.3 nM at HPTPβ.
On to `COCc1csc([C@H](Cc2ccc(NS(=O)(=O)O)cc2)NC(=O)[C@H](Cc2ccccc2)NC(=O)OC)n1` [4-{(S)-2-[(S)-2-(Methoxycarbonylamino)-3-phenylpropanamido]-2-[4-(methoxymethyl)thiazol-2-yl]ethyl}phenylsulfamic acid], for which the IC50 was determined as 640 nM at PTP1B and 1 nM against HPTPβ.
Taken in the same sequence, the figures for `COC(=O)N[C@@H](Cc1ccccc1)C(=O)N[C@@H](Cc1ccc(NS(=O)(=O)O)cc1)c1nc(-c2ccsc2)cs1` [4-{(S)-2-[(S)-2-(Methoxycarbonylamino)-3-phenylpropanamido]-2-[4-(thiophen-3-yl)thiazol-2-yl]ethyl}phenylsulfamic acid] were 440 nM and 0.09 nM.
As to `CCc1csc([C@H](Cc2ccc(NS(=O)(=O)O)cc2)NC(=O)[C@H](CC(C)C)NC(=O)OC(C)(C)C)n1` [4-{(S)-2-[(S)-2-(tert-Butoxycarbonylamino)-4-methylpentanamido]-2-(4-ethylthiazol-2-yl)ethyl}phenylsulfamic acid], the IC50 turned out to be 480 nM against PTP1B and 1 nM against HPTPβ.
Turning to `COC(=O)N[C@@H](Cc1ccccc1)C(=O)N[C@@H](Cc1ccc(NS(=O)(=O)O)cc1)c1csc(CS(=O)(=O)c2ccc(Cl)cc2)n1` [4-{(S)-2-{2-[(4-Chlorophenylsulfonyl)methyl]thiazol-4-yl}-2-[(S)-2-(methoxycarbonylamino)-3-phenylpropanamido]ethyl}phenylsulfamic acid], the IC50 against PTP1B stood at 2540 nM; against HPTPβ it was 0.08 nM.
Regarding `COc1cccc(Cc2csc([C@H](Cc3ccc(NS(=O)(=O)O)cc3)NC(=O)C(C)(C)C)n2)c1` [(S)-4-(2-(4-(3-Methoxybenzyl)thiazol-2-yl)-2-pivalamidoethyl)phenylsulfamic acid], the IC50 was 50000 nM on PTP1B and 132 nM against HPTPβ.
`CC(C)(C)C(=O)N[C@@H](Cc1ccc(NS(=O)(=O)O)cc1)c1nc(-c2ccc(-c3ccccc3)cc2)cs1` [(S)-4-(2-(4-(Biphen-4-yl)thiazol-2-yl)-2-pivalamidoethyl)phenylsulfamic acid]: the IC50 was 28600 nM against PTP1B and 381 nM at HPTPβ.
The corresponding values for `CC(C)(C)C(=O)N[C@@H](Cc1ccc(NS(=O)(=O)O)cc1)c1nc(Cc2ccccc2)cs1` [(S)-4-(2-(4-Benzylthiazol-2-yl)-2-pivalamidoethyl)phenylsulfamic acid] are 38200 nM and 113 nM.
Take `CCc1csc([C@H](Cc2ccc(NS(=O)(=O)O)cc2)NC(=O)C(C)(C)C)n1` [(S)-4-(2-(4-Ethylthiazol-2-yl)-2-pivalamidoethyl)phenyl-sulfamic acid]: the figures for the half-inhibitory concentration (IC50) at PTP1B and against HPTPβ were 142000 nM and 85 nM, respectively.
As for `CC(C)(C)C(=O)N[C@@H](Cc1ccc(NS(=O)(=O)O)cc1)c1nc(-c2ccccc2)cs1` [(S)-4-(2-(4-Phenylthiazol-2-yl)-2-pivalamidoethyl)phenylsulfamic acid], the IC50 on PTP1B was 82300 nM; against HPTPβ, 42 nM.
For the compound `Cc1sc([C@H](Cc2ccc(NS(=O)(=O)O)cc2)NC(=O)C(C)(C)C)nc1-c1ccccc1` [(S)-4-(2-(5-Methyl-4-phenylthiazol-2-yl)-2-pivalamidoethyl)phenylsulfamic acid], the 50% inhibitory concentration (IC50) stood at 50500 nM against PTP1B and 98 nM against HPTPβ.
Taken in the same sequence, the figures for `CC(C)(C)OC(=O)N[C@@H](Cc1ccc(NS(=O)(=O)O)cc1)c1nc(CO)cs1` [(S)-4-(2-(tert-Butoxycarbonylamino)-2-(4-(hydroxymethyl)thiazol-2-yl)ethyl)phenylsulfamic acid] were 31600 nM and 644 nM.
Consider `COCc1csc([C@H](Cc2ccc(NS(=O)(=O)O)cc2)NC(=O)OC(C)(C)C)n1` [(S)-4-(2-(tert-Butoxycarbonylamino)-2-(4-(methoxymethyl)thiazol-2-yl)ethyl)-phenyl sulfamic acid], for which the IC50 is 27600 nM against PTP1B and 180 nM against HPTPβ.
Take `CCCc1csc([C@H](Cc2ccc(NS(=O)(=O)O)cc2)NC(=O)OC(C)(C)C)n1` [(S)-4-(2-(tert-Butoxycarbonylamino)-2-(4-propylthiazol-2-yl)ethyl)phenyl sulfamic acid]: the figures for the IC50 on PTP1B and on HPTPβ were 35600 nM and 40 nM, respectively.
Take `CC(C)(C)OC(=O)N[C@@H](Cc1ccc(NS(=O)(=O)O)cc1)c1nc(C(C)(C)C)cs1` [(S)-4-(2-(tert-Butoxycarbonylamino)-2-(4-tert-butylthiazol-2-yl)ethyl)phenyl sulfamic acid]: the IC50 against PTP1B was 50000 nM; against HPTPβ, 27 nM.
As for `CC(C)(C)OC(=O)N[C@@H](Cc1ccc(NS(=O)(=O)O)cc1)c1ncc(-c2ccccc2)s1` [(S)-4-(2-(tert-Butoxycarbonylamino)-2-(5-phenylthiazol-2-yl)ethyl)-phenyl sulfamic acid], the figures for the IC50 at PTP1B and against HPTPβ were 11400 nM and 308 nM, respectively.
Taken in the same sequence, the figures for `CCc1csc([C@H](Cc2ccc(NS(=O)(=O)O)cc2)NC(=O)CNC(=O)OC)n1` [(S)-4-{2-(4-Ethylthiazol-2-yl)-2-[2-(methoxycarbonylamino)acetamido]ethyl}phenylsulfamic acid] were 5260 nM and 20 nM.
With `CCc1csc([C@H](Cc2ccc(NS(=O)(=O)O)cc2)NC(=O)CNC(=O)OC(C)(C)C)n1` [(S)-4-{2-[2-(tert-Butoxycarbonylamino)acetamido]-2-(4-ethylthiazol-2-yl)ethyl}phenylsulfamic acid], the IC50 at PTP1B is 16000 nM; against HPTPβ, 28 nM.
